By melting point is commonly meant the temperature of the solid-liquid transition. Broadly, the inhibition is how much of the control response was suppressed. In general, pIC50 refers to the negative decadic logarithm of the IC50, by convention in mol/L. Lower therefore signals a high IC50.

Each structure is given as a SMILES string. pIC50: −log10 of the molar value.

This note sets out measurements from PMC6696179, “Structural Optimization and Structure–Activity Relationship of 4-Thiazolidinone Derivatives as Novel Inhibitors of Human Dihydroorotate Dehydrogenase” (Molecules, 2019).

Series [1] deals with T1, hDHODH (Homo sapiens, UniProt Q02127).
T1 construct: The plasmid pET-19b–hDHODH (Met30-Arg396) was transformed; inferred from the pET-19b vector and from purification on a chelating column with imidazole elution) (N); made in house; host or cells: E. coli BL21 (DE3)
Briefly: hDHODH enzyme inhibition assay (DCIP/UQ0, dihydroorotate-initiated).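 For all read-outs here: recombinant hDHODH (Met30–Arg396) in HEPES pH 8.0 buffer with KCl and Triton X-100, reaction started by 500 µM dihydroorotate, inhibition from rate with inhibitor relative to uninhibited rate.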 It is filed as biochemical. The conditions noted are these: for inhibition at 10 µM: compound at 10 µM, 10 nM purified hDHODH; for pIC50: three independent tests, determined if inhibition at 10 μM was greater than 50%.
Description: The purified hDHODH was diluted into a final concentration of 10 nM with the assay buffer contained 50 mM HEPES pH 8.0, 150 mM KCl, 0.1% Triton X-100. […] The dihydroorotate was added to a final concentration of 500 μM to initiate the reaction. […] Inhibition rate was calculated from (1-Vi/V0) × 100. For the determination of the IC50 values, eight to nine different concentrations were applied. Each inhibitor concentration point was tested in triplicate. IC50 values were calculated using the sigmoidal fitting option of the program Origin 8.0.

T1 sequence (Q02127 29-395 limits assumed): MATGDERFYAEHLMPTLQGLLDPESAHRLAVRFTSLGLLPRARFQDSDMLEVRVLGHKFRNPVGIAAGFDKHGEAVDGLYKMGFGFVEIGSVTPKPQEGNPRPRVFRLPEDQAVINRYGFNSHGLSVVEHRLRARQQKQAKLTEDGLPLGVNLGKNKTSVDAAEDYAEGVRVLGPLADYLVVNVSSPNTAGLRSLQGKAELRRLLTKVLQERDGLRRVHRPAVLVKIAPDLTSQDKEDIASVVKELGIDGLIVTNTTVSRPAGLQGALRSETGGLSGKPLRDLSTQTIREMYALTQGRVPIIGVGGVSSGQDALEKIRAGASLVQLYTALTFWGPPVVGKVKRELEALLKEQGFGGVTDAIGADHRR

Consider `COC(=O)/C(C#N)=C1\SCC(=O)N1c1cccc(Oc2ccccc2)c1` [Compound 23, Methyl (Z)-2-cyano-2-(4-oxo-3-(3-phenoxyphenyl)thiazolidin-2-ylidene)acetate], for which the melting point lay in the range of 183.4 to 184.3 °C. Besides, in series [1], the “hDHODH inhibitory activity in words” value was “inactive”, the inhibition at 10 µM came to 34.4% and the pIC50 was under 5.00.

`COC(=O)/C(C#N)=C1\SCC(=O)N1c1ccc(C(=O)Nc2ccccc2)cc1` [Compound 28, Methyl (Z)-2-cyano-2-(4-oxo-3-(4-(phenylcarbamoyl)phenyl)thiazolidin-2-ylidene)acetate]: the melting point was in the range of 194.9 to 195.6 °C. Besides, in series [1], the inhibition at 10 µM is 69% and the pIC50 is 5.53.

In the case of `COC(=O)/C(C#N)=C1\SCC(=O)N1c1ccc(C(=O)Nc2cccc(C(=O)O)c2)cc1` [Compound 41, (Z)-3-(4-(2-(1-Cyano-2-methoxy-2-oxoethylidene)-4-oxothiazolidin-3-yl)benzamido)benzoic acid], the melting point is 205.7 to 206.6 °C. In series [1], this compound had an inhibition at 10 µM of 23.5% and a pIC50 of under 5.00.

`COC(=O)/C(C#N)=C1\SCC(=O)N1c1ccc(C(=O)Nc2ccc(C(F)(F)F)cc2)cc1` [Compound 35, Methyl (Z)-2-cyano-2-(4-oxo-3-(4-((4-(trifluoromethyl)phenyl)carbamoyl)phenyl)thiazolidin-2-ylidene) acetate] showed a melting point of 264.2 to 265.1 °C. In series [1], this compound gave an inhibition at 10 µM of 24.5% and a negative-log IC50 (pIC50) of under 5.00.

Consider `COC(=O)/C(C#N)=C1\SCC(=O)N1c1ccc(C(=O)Nc2ccccc2C)cc1` [Compound 29, Methyl (Z)-2-cyano-2-(4-oxo-3-(4-(o-tolylcarbamoyl)phenyl)thiazolidin-2-ylidene)acetate], for which the melting point was 274.1 to 275 °C. Moreover, in series [1], 10 µM produced 47% inhibition and the negative logarithm of the IC50 (pIC50) is under 5.00.

For `COC(=O)/C(C#N)=C1\SCC(=O)N1c1ccc(C(=O)NCc2ccccc2C(=O)O)cc1` [Compound 42, (Z)-2-((4-(2-(1-cyano-2-methoxy-2-oxoethylidene)-4-oxothiazolidin-3-yl)benzamido)methyl)-benzoic acid], the melting point is 217.3 to 218.1 °C. In series [1], this compound showed an inhibition at 10 µM of 36.8% and a pIC50 of under 5.00.

In turn, `COC(=O)/C(C#N)=C1\SCC(=O)N1c1ccc(-c2cccc(C#N)c2)cc1F` [Compound 16, Methyl (Z)-2-cyano-2-(3-(3’-cyano-3-fluoro-[1,1’-biphenyl]-4-yl)-4-oxothiazolidin-2-ylidene)acetate] displayed a melting point of 191.2 to 191.3 °C. In series [1], 10 µM produced 50.2% inhibition and the negative logarithm of the IC50 (pIC50) was 5.08.

On to `COC(=O)/C(C#N)=C1\SCC(=O)N1c1ccc(Oc2cccc(C(F)(F)F)c2)cc1` [Compound 21], for which the melting point fell in the range of 159.7 to 161.3 °C. In series [1], this compound gave an inhibition at 10 µM of 29.7% and a pIC50 of under 5.00.

In turn, `COC(=O)/C(C#N)=C1\SCC(=O)N1c1ccc(Oc2ccc(C(C)(C)C)cc2)cc1` [Compound 22, Methyl (Z)-2-(3-(4-(4-(tert-butyl)phenoxy)phenyl)-4-oxothiazolidin-2-ylidene)-2-cyanoacetate] had a melting point of 212.9 to 213.9 °C. In series [1], this compound had an inhibition at 10 µM of 18.1% and a negative logarithm of the IC50 (pIC50) of under 5.00.

In turn, `COC(=O)/C(C#N)=C1\SCC(=O)N1c1ccc(OCc2cccc(C(=O)O)c2)cc1` [Compound 26, (Z)-3-((4-(2-(1-Cyano-2-methoxy-2-oxoethylidene)-4-oxothiazolidin-3-yl)phenoxy)methyl)benzoic acid] gave a melting point of 233.2 to 234.1 °C. Besides, in series [1], the inhibition at 10 µM is 36.2% and the negative logarithm of the IC50 (pIC50) was under 5.00.

In the case of `COC(=O)/C(C#N)=C1\SCC(=O)N1c1ccc(-c2ccc(OC)cc2)cc1F` [Compound 15, Methyl (Z)-2-cyano-2-(3-(3-fluoro-4’-methoxy-[1,1’-biphenyl]-4-yl)-4-oxothiazolidin-2-ylidene)acetate], the melting point was in the range of 177.1 to 177.3 °C. Besides, in series [1], the inhibition at 10 µM was found to be 55.4% and the pIC50 was 5.16.
